According to patent US20240317827A1, “LINEAR PEPTIDES INHIBITING CK2-MEDIATED PHOSPHORYLATION AND COMPOSITIONS COMPRISING SAME” (CENTRO DE INGENIERÍA GENÉTICA Y BIOTECNOLOGÍA, priority 2021, published 2024):
Where a SMILES comes first, the peptide text is derived from it. [ ]: non-standard residue; d: D form. βAla = NCCC(=O)O

T1: E7 oncoprotein of HPV-16 expressed in Escherichia coli as a fusion protein to Glutathione S-Transferase (Human Papillomavirus (HPV)-16, UniProt P03129 1-98)
T1 sequence: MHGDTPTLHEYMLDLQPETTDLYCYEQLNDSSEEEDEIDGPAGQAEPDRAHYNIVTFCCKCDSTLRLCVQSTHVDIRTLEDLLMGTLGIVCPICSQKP


Tested on: NCI-H125 cell line (non-small cell lung cancer)
Assay: cell proliferation assay, NCI-H125 line
Type: cell-based
Settings: NCI-H125, Table 5; read-out: IC50
Method: The evaluation of the antiproliferative activity of polypeptides F11P13-F11P21 (SEQ ID NO: 12-SEQ ID NO: 20) was performed on the NCI-H125 cell line. […] The antiproliferative effect of the CIGB-300 peptide has been widely characterized in this line (Cirigliano S. M., et al., 2017, Cancer Cell International, 17, 42), therefore, it was selected as a positive control. Tat peptide was used as a negative control. The polypeptides were evaluated at the concentrations of 25, 50, 100 and 200 μM. The cell proliferation assay was performed by a previously described procedure (Perera Y., et al., 2012, J. Pept. Sci, 18 (4):215-23).
The 24 polypeptides identified as SEQ ID NO: 21-SEQ ID NO: 44 maintained the ability to inhibit the phosphorylation of the E7 protein of HPV-16, mediated by CK2, since phosphorylation inhibition values between 60-85% were obtained. […] Evaluation of the antiproliferative activity of synthetic polypeptides generated by positional scanning of Trp (SEQ ID NO: 21-SEQ ID NO: 44) was performed on the NCI-H125 cell line. The test was performed by the procedure previously described. (Perera Y., et al., 2012, J. Pept. Sci, 18 (4): 215-23). Precursor polypeptides (F11P19, F11P20, F11P21) and peptide CIGB-300 were included as positive controls. The polypeptides were evaluated at the concentrations of 12.5; 25; fifty; 100 and 200 μM.
The evaluation of the antiproliferative activity of synthetic polypeptides A15P35, A15P36 and A15P37 (SEQ ID NO: 46-SEQ ID NO: 48) was performed on the NCI-H125, AsPC-1, PanC-1 (pancreatic carcinoma) and OCI-AML3 (acute myeloid leukemia-3) cell lines. The test was carried out according to the procedure previously described (Perera Y, et al., 2012, J. Pept. Sci, 18 (4):215-23). […] The polypeptides A15P35, A15P36 and A15P37 were able to produce a dose-dependent effect on the proliferation of NCI-H125 cells.
Antiproliferative assays were performed on the NCI-H125, Hep2C (laryngeal carcinoma) cell lines, and on two bladder cancer lines (MGH-U3 and MGH-U4). The test was carried out according to the procedure previously described (Perera Y., et al, 2012, Pept. Sci, 18 (4):215-23).

Molecule	IC50 [µM]
N=C(N)NCCC[C@H](NC(=O)CN)C(=O)N[C@@H](CCCCN)C(=O)N[C@@H](CCCCN)C(=O)N[C@@H](CCCNC(=N)N)C(=O)N[C@@H](CCCNC(=N)N)C(=O)N[C@@H](CCC(N)=O)C(=O)N[C@@H](CCCNC(=N)N)C(=O)N[C@@H](CCCNC(=N)N)C(=O)N[C@@H](CCCNC(=N)N)C(=O)N1CCC[C@H]1C(=O)N1CCC[C@H]1C(=O)N[C@@H](CCC(N)=O)C(=O)NCCC(=O)N[C@@H](Cc1c[nH]c2ccccc12)C(=O)N[C@@H](Cc1ccc(O)cc1)C(=O)N[C@@H](CCCNC(=N)N)C(=O)N[C@@H](Cc1ccc(O)cc1)C(=O)N[C@@H](CCCCN)C(=O)N[C@@H](CCCNC(=N)N)C(=O)N[C@@H](CC(=O)O)C(=O)N1CCC[C@H]1C(N)=O [A14P27, GRKKRRQRRRPPQ-βA-WYRYKRDP] (H-GRKKRRQRRRPPQ[βAla]WYRYKRDP-NH2; N-terminus and C-terminus assumed)	165
N=C(N)NCCC[C@H](NC(=O)CN)C(=O)N[C@@H](CCCCN)C(=O)N[C@@H](CCCCN)C(=O)N[C@@H](CCCNC(=N)N)C(=O)N[C@@H](CCCNC(=N)N)C(=O)N[C@@H](CCC(N)=O)C(=O)N[C@@H](CCCNC(=N)N)C(=O)N[C@@H](CCCNC(=N)N)C(=O)N[C@@H](CCCNC(=N)N)C(=O)N1CCC[C@H]1C(=O)N1CCC[C@H]1C(=O)N[C@@H](CCC(N)=O)C(=O)NCCC(=O)NCC(=O)N[C@@H](Cc1ccc(O)cc1)C(=O)N[C@@H](CCCNC(=N)N)C(=O)N[C@@H](Cc1ccc(O)cc1)C(=O)N[C@@H](Cc1c[nH]c2ccccc12)C(=O)N[C@@H](CCCNC(=N)N)C(=O)N[C@@H](CC(=O)O)C(=O)N1CCC[C@H]1C(N)=O [A14P31, GRKKRRQRRRPPQ-βA-GYRYWRDP] (H-GRKKRRQRRRPPQ[βAla]GYRYWRDP-NH2; N-terminus and C-terminus assumed)	135
N=C(N)NCCC[C@H](NC(=O)CN)C(=O)N[C@@H](CCCCN)C(=O)N[C@@H](CCCCN)C(=O)N[C@@H](CCCNC(=N)N)C(=O)N[C@@H](CCCNC(=N)N)C(=O)N[C@@H](CCC(N)=O)C(=O)N[C@@H](CCCNC(=N)N)C(=O)N[C@@H](CCCNC(=N)N)C(=O)N[C@@H](CCCNC(=N)N)C(=O)N1CCC[C@H]1C(=O)N1CCC[C@H]1C(=O)N[C@@H](CCC(N)=O)C(=O)NCCC(=O)NCC(=O)N[C@@H](Cc1ccc(O)cc1)C(=O)N[C@@H](CCCNC(=N)N)C(=O)N[C@@H](Cc1ccc(O)cc1)C(=O)N[C@@H](CCCCN)C(=O)N[C@@H](CCCNC(=N)N)C(=O)N[C@@H](Cc1c[nH]c2ccccc12)C(=O)N1CCC[C@H]1C(N)=O [A14P33, GRKKRRQRRRPPQ-βA-GYRYKRWP] (H-GRKKRRQRRRPPQ[βAla]GYRYKRWP-NH2; N-terminus and C-terminus assumed)	124
N=C(N)NCCC[C@H](NC(=O)CN)C(=O)N[C@@H](CCCCN)C(=O)N[C@@H](CCCCN)C(=O)N[C@@H](CCCNC(=N)N)C(=O)N[C@@H](CCCNC(=N)N)C(=O)N[C@@H](CCC(N)=O)C(=O)N[C@@H](CCCNC(=N)N)C(=O)N[C@@H](CCCNC(=N)N)C(=O)N[C@@H](CCCNC(=N)N)C(=O)N1CCC[C@H]1C(=O)N1CCC[C@H]1C(=O)N[C@@H](CCC(N)=O)C(=O)NCCC(=O)N[C@@H](CCCNC(=N)N)C(=O)N[C@@H](CCCCN)C(=O)N[C@@H](CCCNC(=N)N)C(=O)N[C@@H](Cc1c[nH]c2ccccc12)C(=O)N[C@@H](CCCNC(=N)N)C(=O)N[C@@H](Cc1ccc(O)cc1)C(=O)N[C@@H](CC(=O)O)C(=O)N1CCC[C@H]1C(N)=O [A14P43, GRKKRRQRRRPPQ-βA-RKRWRYDP] (H-GRKKRRQRRRPPQ[βAla]RKRWRYDP-NH2; N-terminus and C-terminus assumed)	107
CC(C)C[C@H](NC(=O)[C@H](CCCNC(=N)N)NC(=O)[C@H](CCCNC(=N)N)NC(=O)[C@H](CCCCN)NC(=O)[C@H](CCCCN)NC(=O)[C@@H](NC(=O)CCNC(=O)[C@H](CCC(N)=O)NC(=O)[C@@H]1CCCN1C(=O)[C@@H]1CCCN1C(=O)[C@H](CCCNC(=N)N)NC(=O)[C@H](CCCNC(=N)N)NC(=O)[C@H](CCCNC(=N)N)NC(=O)[C@H](CCC(N)=O)NC(=O)[C@H](CCCNC(=N)N)NC(=O)[C@H](CCCNC(=N)N)NC(=O)[C@H](CCCCN)NC(=O)[C@H](CCCCN)NC(=O)[C@H](CCCNC(=N)N)NC(=O)CN)C(C)C)C(=O)N[C@@H](Cc1c[nH]c2ccccc12)C(=O)N1CCC[C@H]1C(N)=O [A14P59, GRKKRRQRRRPPQ-βA-VKKRRLWP] (H-GRKKRRQRRRPPQ[βAla]VKKRRLWP-NH2; N-terminus and C-terminus assumed)	140

Same assay, conditions: NCI-H125; read-out: IC50 (dose-effect curves)

Molecule	IC50 [µM]
N=C(N)NCCC[C@H](NC(=O)CN)C(=O)N[C@@H](CCCCN)C(=O)N[C@@H](CCCCN)C(=O)N[C@@H](CCCNC(=N)N)C(=O)N[C@@H](CCCNC(=N)N)C(=O)N[C@@H](CCC(N)=O)C(=O)N[C@@H](CCCNC(=N)N)C(=O)N[C@@H](CCCNC(=N)N)C(=O)N[C@@H](CCCNC(=N)N)C(=O)N1CCC[C@H]1C(=O)N1CCC[C@H]1C(=O)N[C@@H](CCC(N)=O)C(=O)NCCC(=O)N[C@@H](CCCNC(=N)N)C(=O)N[C@@H](CCCCN)C(=O)N[C@@H](CCCNC(=N)N)C(=O)N[C@@H](CO)C(=O)N[C@@H](CCCNC(=N)N)C(=O)N[C@@H](Cc1ccc(O)cc1)C(=O)N[C@@H](CC(=O)O)C(=O)N1CCC[C@H]1C(N)=O [F11P19, GRKKRRQRRRPPQ-βA-RKRSRYDP] (H-GRKKRRQRRRPPQ[βAla]RKRSRYDP-NH2; N-terminus and C-terminus assumed)	336
N=C(N)NCCC[C@H](NC(=O)CN)C(=O)N[C@@H](CCCCN)C(=O)N[C@@H](CCCCN)C(=O)N[C@@H](CCCNC(=N)N)C(=O)N[C@@H](CCCNC(=N)N)C(=O)N[C@@H](CCC(N)=O)C(=O)N[C@@H](CCCNC(=N)N)C(=O)N[C@@H](CCCNC(=N)N)C(=O)N[C@@H](CCCNC(=N)N)C(=O)N1CCC[C@H]1C(=O)N1CCC[C@H]1C(=O)N[C@@H](CCC(N)=O)C(=O)NCCC(=O)NCC(=O)N[C@@H](Cc1ccc(O)cc1)C(=O)N[C@@H](CCCNC(=N)N)C(=O)N[C@@H](Cc1ccc(O)cc1)C(=O)N[C@@H](CCCCN)C(=O)N[C@@H](CCCNC(=N)N)C(=O)N[C@@H](CC(=O)O)C(=O)N1CCC[C@H]1C(N)=O [F11P20, GRKKRRQRRRPPQ-βA-GYRYKRDP] (H-GRKKRRQRRRPPQ[βAla]GYRYKRDP-NH2; N-terminus and C-terminus assumed)	305
CC(C)C[C@H](NC(=O)[C@H](CCCNC(=N)N)NC(=O)[C@H](CCCNC(=N)N)NC(=O)[C@H](CCCCN)NC(=O)[C@H](CCCCN)NC(=O)[C@@H](NC(=O)CCNC(=O)[C@H](CCC(N)=O)NC(=O)[C@@H]1CCCN1C(=O)[C@@H]1CCCN1C(=O)[C@H](CCCNC(=N)N)NC(=O)[C@H](CCCNC(=N)N)NC(=O)[C@H](CCCNC(=N)N)NC(=O)[C@H](CCC(N)=O)NC(=O)[C@H](CCCNC(=N)N)NC(=O)[C@H](CCCNC(=N)N)NC(=O)[C@H](CCCCN)NC(=O)[C@H](CCCCN)NC(=O)[C@H](CCCNC(=N)N)NC(=O)CN)C(C)C)C(=O)N[C@@H](CC(=O)O)C(=O)N1CCC[C@H]1C(N)=O [F11P21, GRKKRRQRRRPPQ-βA-VKKRRLDP] (H-GRKKRRQRRRPPQ[βAla]VKKRRLDP-NH2; N-terminus and C-terminus assumed)	668

Molecular target: T1, E7 oncoprotein of HPV-16 expressed in …
Assay: cell-based or functional assay
Settings: not given

Molecule	inhibition of CK2-mediated phosphorylation of HPV-16 E7 (in vitro phosphorylation reaction, GST-E7 substrate) [%]
RKRSRYWP [peptide D14P165 (RKRSRYWP)]	85
RKRSWYWP [peptide D15P106 (RKRSWYWP)]	82
RKRWRYWP [peptide D15P105 (RKRWRYWP)]	87

Molecular target: T2, CK2-mediated phosphorylation of the HPV-16 E7 oncoprotein (Human papillomavirus type 16, UniProt P03129)
T2 construct: Glutathione S-Transferase (GST); made in house; host or cells: Escherichia coli
Assay: in vitro phosphorylation reaction, E7 oncoprotein (GST fusion) as substrate
Type: biochemical
Settings: procedure of Example 2
Method: The assay to measure the effect of these peptides on the CK2-mediated phosphorylation of the HPV-16 E7 oncoprotein, was based on an in vitro phosphorylation reaction, where the E7 oncoprotein of HPV-16 expressed in Escherichia coli was used as substratum. This oncoprotein was obtained as a fusion protein to Glutathione S-Transferase. The assay was performed according to the procedure previously described. (Perea S. E., et al., 2004, Cancer Res., 64: 7127-7129). The results are shown in FIG. 1, and indicate that the peptides identified as SEQ ID NO: 1-SEQ ID NO: 9 are capable of inhibiting CK2-mediated phosphorylation of the E7 protein of HPV-16.

Molecule	phosphorylation inhibition [%]
RKRSRYWP [D14P165]	85
RKRSWYWP [D15P106]	82
RKRWRYWP [D15P105]	87
